This is an account of results in US20220381784A1, “SYSTEMS COMPRISING SUBSTRATES AND METHODS OF USING THE SAME FOR DETECTION OF PANCREATIC CANCERS” (THE REGENTS OF THE UNIVERSITY OF CALIFORNIA, priority 2019, published 2022).

Square brackets hold non-standard residues; d marks the D form. Peptide text beside a SMILES is read from it. * marks the point of attachment. Sta = CC(C)C[C@H](N)[C@@H](O)CC(=O)O; Isovaleryl = CC(C)CC(=O)*; CH2Cl = ClC*

Series [1] relates to tri-amino peptidase activity in mucinous cyst fluid. In words: MSP-MS assay of mucinous cyst fluid with protease inhibitors. The format is biochemical, human. Particulars: 2 μmol/L pepstatin; for effect on tri-amino peptidase activity (cleavage after third amino acid): pH 3.5, 10 μmol/L AAF-CMK. As for the experimental part: The MSP-MS assay was performed as described previously (Ivry et al., 2017; O'Donoghue et al., 2012). Cyst fluid protein concentration was first determined through the BCA assay (Thermo Fisher, 23225). Cyst fluid samples were then diluted to 100 μg/mL in pH 3.5 acetate buffer or pH 7.5 phosphate buffer. The 228 tetradecapeptide was split into two pools of 114 peptides each and diluted to 1 μmol/L in either acetate or phosphate buffer. Equal volumes of diluted cyst fluid and peptide pools were combined and incubated at room temperature. After 15 and 60 minutes, 30 μL aliquots were removed and protease activity was quenched with 8 mol/L guanidinium hydrochloride. Aliquots were then desalted using C18 tips (Rainin). The following inhibitors were included in specified MSP-MS assays: 1 mmol/L AEBSF (Sigma, A8456), 2 mmol/L E64 (Sigma, E3132), 2 μmol/L pepstatin (Sigma, P5318), 2 mmol/L 1,10-phenanthroline (Sigma, 131337), and 10 μmol/L AAF-CMK (Enzo, BML-PI123).
Mass spectrometry analysis was performed with an LTQ Orbitrap XL Mass Spectrometer (Thermo Fisher) coupled to an Ultra Performance Liquid Chromatography (UPLC) System (Waters). Peptides were separated over a C18 column (Thermo Fisher, ES800) with a 65-minute linear gradient from 2%-30% acetonitrile. MS spectra were acquired over an m/z range of 325-1,500 and MS/MS spectra were obtained for the six most intense precursor ions by collision-induced dissociation (CID). Peak lists were generated using MSConvert and searched in Protein Prospector v. 5.10.0 against a database containing the sequences from the 228 tetradecapeptide library. Searches used a mass tolerance of 20 ppm for precursors and 0.8 Da for fragments. The following variable modifications were allowed: N-terminal pyroglutamate conversion from glutamine or glutamate and oxidation of tryptophan, proline, and tyrosine. Search outputs were then processed using the MSP-xtractor software (http://www.craiklab.ucsfedu/extractor.html). […] Spectral counts were used for relative quantification of MSP-MS results.

In series [2] the target is most rapidly cleaved internally quenched fluorescent TPP1 substrate (P3 to P4' sequence from the MSP-MS library, lysine-fluorophore in P1).

On to `CC(C)CC(=O)N[C@H](C(=O)N[C@H](C(=O)N[C@@H](CC(C)C)[C@@H](O)CC(=O)N[C@@H](C)C(=O)N[C@@H](CC(C)C)[C@@H](O)CC(=O)O)C(C)C)C(C)C` [pepstatin] (Isovaleryl-VV[Sta]A[Sta]-OH), for which, in series [1] (acidic pH), the “number of detected peptide cleavages at other positions enriched in mucinous cysts (B6, B8, B9, B10)” value was “decrease”. For the same molecule, in series [1], the “effect on tri-amino peptidase activity (cleavage after third amino acid)” value was “not inhibited”.

For the molecule `C[C@H](N)C(=O)N[C@@H](C)C(=O)N[C@@H](Cc1ccccc1)C(=O)CCl` [tripeptide chloromethylketone inhibitor, Ala-Ala-Phe-chloromethylketone] (H-Ala-Ala-Phe-CH2Cl), the “effect on tri-amino peptidase activity (cleavage after third amino acid)” value in series [1] was “almost completely ablated”.

B1: recombinant tripeptidyl peptidase 1 (TPP1) (protein)
chain: LHLGVTPSVIRKRYNLTSQDVGSGTSNNSQACAQFLEQYFHDSDLAQFMRLFGGNFAHQASVARVVGQQGRGRAGIEASLDVQYLMSAGANISTWVYSSPGRHEGQEPFLQWLMLLSNESALPHVHTVSYGDDEDSLSSAYIQRVNTELMKAAARGLTLLFASGDSGAGCWSVSGRHQFRPTFPASSPYVTTVGGTSFQEPFLITNEIVDYISGGGFSNVFPRPSYQEEAVTKFLSSSPHLPPSSYFNASGRAYPDVAALSDGYWVVSNRVPIPWVSGTSASTPVFGGILSLINEHRILSGRPPLGFLNPRLYQQHGAGLFDVTRGCHESCLDEEVEGQGFCSGPGWDPVTGWGTPNFPALLKTLLNP
On to B1, for which the “kcat/Km (cleavage of internally quenched fluorescent substrate, fluorescence assay, pH 4.5)” value in series [2] was “kcat/Km of 2.5 µmol^-1s^-1”.
